{"source": "paper PMC12086609", "about": "“Characterization of the Structure and Function of the Photosynthetic RC–LH1 Core Supercomplex From Rhodospirillum rubrum” (Physiologia Plantarum, 2025)", "key": {"[1]": {"biological_target": "T1, Rsp. rubrum RC–LH1 supercomplex (RC–LH1 monomer) (Rhodospirillum rubrum, UniProt P02947+P10717+Q2RQ23+Q2RQ26)", "T1 construct": "gene pufL; native purification from phototrophic cells (beta-DDM, sucrose gradient); closed ring of 16 alpha-beta pairs around RC L, M, H; modelled alpha 45 and beta 44 residues", "T1 sequence (P10717 2-276)": "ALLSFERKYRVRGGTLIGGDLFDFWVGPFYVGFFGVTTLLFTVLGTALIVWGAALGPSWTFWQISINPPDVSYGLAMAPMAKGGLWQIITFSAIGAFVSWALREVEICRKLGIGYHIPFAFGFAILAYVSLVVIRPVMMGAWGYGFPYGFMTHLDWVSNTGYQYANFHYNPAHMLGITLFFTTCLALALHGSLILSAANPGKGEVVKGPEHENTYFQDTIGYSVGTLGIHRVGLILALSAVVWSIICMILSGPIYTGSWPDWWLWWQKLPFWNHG", "T1 sequence (Q2RQ26 1-306)": "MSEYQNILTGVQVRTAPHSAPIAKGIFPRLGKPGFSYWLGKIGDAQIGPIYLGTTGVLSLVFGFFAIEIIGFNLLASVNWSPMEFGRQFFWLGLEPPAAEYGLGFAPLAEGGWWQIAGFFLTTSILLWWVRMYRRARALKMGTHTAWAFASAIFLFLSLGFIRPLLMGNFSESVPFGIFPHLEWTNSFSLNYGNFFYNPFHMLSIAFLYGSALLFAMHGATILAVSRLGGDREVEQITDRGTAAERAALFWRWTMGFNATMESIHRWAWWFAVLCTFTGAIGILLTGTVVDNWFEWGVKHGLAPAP", "T1 sequence (Q2RWS4 1-257 partner)": "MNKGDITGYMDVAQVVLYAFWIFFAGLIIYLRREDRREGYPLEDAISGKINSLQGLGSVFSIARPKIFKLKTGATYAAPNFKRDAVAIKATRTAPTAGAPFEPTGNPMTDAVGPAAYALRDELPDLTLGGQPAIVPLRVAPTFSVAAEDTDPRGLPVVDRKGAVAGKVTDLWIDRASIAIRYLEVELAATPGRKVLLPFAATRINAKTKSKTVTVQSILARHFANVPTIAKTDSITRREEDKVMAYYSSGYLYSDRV", "T1 sequence (P02947 1-52)": "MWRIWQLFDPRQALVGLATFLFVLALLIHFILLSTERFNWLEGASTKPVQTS", "T1 sequence (Q2RQ23 3-56)": "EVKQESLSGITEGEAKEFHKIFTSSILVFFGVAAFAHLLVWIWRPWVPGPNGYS", "experiment": "cryo-EM structure, […] Å", "assay_type": "binding", "details": "native carotenoid of LH1, one per alpha-beta heterodimer (16)"}, "[2]": {"biological_target": "T1, Rsp. rubrum RC–LH1 supercomplex (RC–LH1 monomer)", "experiment": "cytochrome c2 oxidation at […] nm under […] nm light", "assay_type": "biochemical", "details": "QB site of RC (L/M); 0-40 μM UQ2, 15 nM RC–LH1, 30 μM reduced horse-heart cytochrome c, HEPES pH 8.0, 0.01% β-DDM; apparent Km not determined"}, "[3]": {"biological_target": "T2, Rba. sphaeroides WT RC–LH1 monomer (Cereibacter sphaeroides, UniProt P0C0Y8+P0C0Y9)", "T2 construct": "gene pufL; native RC–LH1 monomer with open LH1 ring (contains PufX); with Reaction center protein H chain; Light-harvesting protein B-875 alpha chain (LH1 alpha); Light-harvesting protein B-875 beta chain (LH1 beta); Intrinsic membrane protein PufX", "experiment": "cytochrome c2 oxidation at […] nm under […] nm light", "assay_type": "biochemical", "details": "QB site of RC (L/M); 0-40 μM UQ2, 15 nM RC–LH1, 30 μM reduced horse-heart cytochrome c, HEPES pH 8.0, 0.01% β-DDM; apparent Km not determined"}}, "data": [{"smiles": "COC(C)(C)C/C=C/C(C)=C/C=C/C(C)=C/C=C/C(C)=C/C=C/C=C(C)/C=C/C=C(C)/C=C/C=C(C)/C=C/CC(C)(C)OC", "note": "[spirilloxanthin]", "values": [{"measurement": "cryo-EM structure, 3.0 Å", "setting": "[1]", "result": "The LH1 α‐polypeptide is light blue sky, the β‐polypeptide is pink, spirilloxanthin is green"}]}, {"smiles": "COC1=C(OC)C(=O)C(C/C=C(\\C)CCC=C(C)C)=C(C)C1=O", "note": "[ubiquinone‐2]", "values": [{"measurement": "cytochrome c oxidation at 550 nm under 880 nm light", "setting": "[2]", "result": "maximum quinone/quinol exchange rate for Rsp. rubrum RC–LH1 monomer"}, {"measurement": "cytochrome c2 oxidation at 550 nm under 880 nm light", "setting": "[3]", "result": "open RC–LH1 monomer of Rba. sphaeroides WT"}]}]}
